Test results published in patent US20170368089A1, “COMPOSITION FOR PREVENTING OR TREATING COLITIS” (UNIVERSITY-INDUSTRY COOPERATION GROUP OF KYUNG HEE …, priority 2012, published 2017).

Columns and labels:
Myeloperoxidase (MPO) = assay: MPO activity of colon tissue (mouse MPO ELISA kit), TNBS colitis, first experiment; type: in vivo, ICR male mice; conditions: TNBS-treated mice, 10 mg/kg orally, 3 days
Description: Among the experimental groups, one group was set as a normal group, and for the experimental animals in other groups, colitis was induced with 2,4,6-trinitrobenzenesulfonic acid (TNBS). In detail, after lightly anesthetizing the experimental animals with ether, 0.1 ml of the solution prepared by mixing […] of 2,4,6-Trinitrobenzene sulfonic acid (NBS) solution with 50% ethanol was injected into the colon through the anus using a syringe having 1 ml volume and oval point, respectively; and then, the syringe was vertically picked up, and then, maintained for 30 seconds to induce the inflammation. Meanwhile, 0.1 ml of normal saline solution was orally administered to the normal group. Since then, from the next day, the sample dissolved in normal saline solution was orally administered in the volume that was decided in advance one time a day for 3 days. At the next day after completing the sample administration, the experimental animals were suffocated to death with carbon dioxide, the colon from appendix to the region just before the anus was removed from the colon region.
200 μl of lysis buffer was added to 100 mg of colon tissue, and then, the colon tissue was homogenized. Since then, the homogenized colon tissue was centrifuged under the conditions of 4° C. and 13000 rpm for 15 minutes, and then, the supernatant thereof was obtained. In the supernatant, the MPO activity was measured using a mouse MPO assay ELISA kit (Hbt HK210, USA). 100 μl of the supernatant was added in a 96 well plate, and then, reacted at room temperature for 1 hour. After completing the reaction, the plate was overturned and emptied; was repeatedly washed three times with 200 μl of washing buffer solution; 100 μl of diluted tracer was added thereto; and then the reaction was performed at room temperature for 1 hour. After completing the reaction, the plate was overturned and emptied; and then each well in the plate was washed using 200 μl of washing buffer solution. After repeatedly performing the washing processes three times using 200 μl of washing buffer solution, 100 μl of diluted streptavidin-peroxidase conjugate was added thereto, and then, the reaction was performed at room temperature for 1 hour. After completing the reaction, the plate was overturned and emptied, and then, each well in the plate was washed with 200 μl of washing buffer solution. After the washing processes were repeatedly performed three times using 200 μl of washing buffer solution, 100 μl of TMB substrate solution was added thereto; the plate was wrapped in an aluminum foil to block out the light; and then, the reaction was performed at room temperature for 30 minutes. Since then, 100 μl of a stop solution was added to stop the reaction, and then, the absorbance was measured at 450 nm using an ELISA reader.

[1] = test system: model animal with acute colitis induced by TNBS; assay: Acute colitis induced by TNBS in mice, weight change and colon appearance (macroscopic score, colon length), third experiment; type: in vivo, male mice (C57BL/6); conditions: Table 12, TNBS-treated mice, 3 days
Description: All the mice were bred under the controlled environmental conditions of 50 ±10% of humidity and 20 to 22° C. of temperature, and the lighting was repeatedly on for 12 hours and off for 12 hours. A feed for a standard experiment (Samyang, Korea) was used as a feed, and water was freely taken. For all the experiments, one group was 6 mice. […] Meanwhile, 0.1 ml of normal saline solution was orally administered to the normal group. Since then, from the next day, the sample dissolved in normal saline solution was orally administered in the volume that was decided in advance one time a day for 3 days. At the next day after completing the sample administration, the experimental animals were suffocated to death with carbon dioxide, and the colon from appendix to the region just before the anus was removed from the colon region. At this time, as a medicine sample, the experiments using the butanol-soluble fraction of the Anemarrhena asphodeloides Bunge extract, Mangiferin, and a combined extract were separately performed at a distance of time, respectively, and the effects of the medicine samples on preventing or treating colitis were reasonably analyzed based on the group supplied with normal saline solution instead of a specific medicine in the model animals with acute colitis induced by TNBS for each of the experiments. The sample administration to the model animals with colitis induced by TNBS was stopped, and at the next day, the weights of the experimental animals were measured, and then, the measured weights were compared with the initial weights to calculate the change amounts of weights. The scores about the removed colons were estimated by observing the appearances and the lengths of the colons according to the following criteria (Hollenbach, and the like, the criteria about the level of colon in 2005) as listed in Table 11. At this time, as a positive control group, the group administered with Mesalazine (Sigma) was used. In addition, some of the content in the colon was collected in order to analyze the rumen microorganisms, and then, was stored in a freezer of −80° C. […]

IL-1 beta = IL-1 beta expression in colon tissue (ELISA), TNBS acute colitis, third experiment; type: in vivo, male mice (C57BL/6); conditions: Table 12; TNBS-treated mice, 10 mg/kg orally, 3 days
Description: Meanwhile, 0.1 ml of normal saline solution was orally administered to the normal group. Since then, from the next day, the sample dissolved in normal saline solution was orally administered in the volume that was decided in advance one time a day for 3 days. At the next day after completing the sample administration, the experimental animals were suffocated to death with carbon dioxide, and the colon from appendix to the region just before the anus was removed from the colon region. At this time, as a medicine sample, the experiments using the butanol-soluble fraction of the Anemarrhena asphodeloides Bunge extract, Mangiferin, and a combined extract were separately performed at a distance of time, respectively, and the effects of the medicine samples on preventing or treating colitis were reasonably analyzed based on the group supplied with normal saline solution instead of a specific medicine in the model animals with acute colitis induced by TNBS for each of the experiments. […] While the supernatant was stored at −80° C., the expression amounts of IL-1 beta, IL-6, and TNF-alpha, which were proinflammatory cytokines, and the expression amount of IL-10, which was anti-inflammatory cytokine, were measured using a 96-well ELISA plate kits (Pierce Biotechology, Inc., Rockford, Ill., USA).

`Nc1ccc(O)c(C(=O)O)c1` [mesalazine, Mesalazine] was tested, and the MPO activity (Myeloperoxidase (MPO); Table 2 (group 1)) was 1.8 ± 0.2 μUnit/mg, the MPO activity (Myeloperoxidase (MPO); Table 3 (group 2)) was 0.2 ± 0.1 μUnit/mg and the “Colon length (Percentage to group supplied with normal saline solution after treating TNBS)” value ([1]; 10 mg/kg orally) was 155%. For the same compound, the “Macroscopic score (Percentage to group supplied with normal saline solution after treating TNBS)” value ([1]; 10 mg/kg orally) was 61.1%, the “Body weight (Percentage to group supplied with normal saline solution after treating TNBS)” value ([1]; one time dosage amount 10 mg/kg orally) was 113.5% and the “IL-1β (Percentage to group supplied with normal saline solution after treating TNBS)” value (IL-1 beta) was 30.3%.
